Laboratory results reported in patent EP1165069B1, “ANTITUMOUR SYNERGISTIC COMPOSITION” (Pharmacia Italia S.p.A., priority 1999, dated 2000).

Test system: disseminated L1210 murine leukemia
Assay: Antileukemic activity against disseminated L1210 murine leukemia (in vivo, iv treatment)
Parameters: species or system mouse
Conditions: for LTS (Long Term Survivors (>60 days) at the end the experiment) / Tox (Number of toxic deaths/number of mice) / ILS% (Increase in life span): combination at the same doses and schedule; for ILS% (Increase in life span): L1210 cells 10^5/mouse iv on day 0
Source text: Combining doxorubicin and Ia at the same doses with the same schedule an increase of activity with ILS% values of 150 was observed, indicating a synergistic effect.
For these experiments Ia was solubilized in [Cremophor® /EtOH= 6.5:3.5]/[normal saline]=20/80 v/v, while standard etoposide pharmaceutical preparation and doxorubicin solubilized in water were used.

[1] = Table 2 experiment: Ia 1.5 mg/kg/day iv days +1,2, Doxorubicin 13 mg/kg/day iv day +3
[2] = doxorubicin alone 13 mg/kg day +3, Ia alone 1.5 mg/kg days +1,2
[3] = Table 1 experiment: Ia 1 mg/kg/day iv days +1,2, Etoposide 30 mg/kg/day iv day +3
[4] = etoposide alone 30 mg/kg day +3, Ia alone 1 mg/kg days +1,2

Row | SMILES | LTS (Long Term Survivors (>60 days) at the end the experiment) [1] | Tox (Number of toxic deaths/number of mice) [1] | ILS% (Increase in life span) [1] [%] | toxicity (in words) [2] | LTS (Long Term Survivors (>60 days) at the end the experiment) [3] | Tox (Number of toxic deaths/number of mice) [3] | ILS% (Increase in life span) [3] [%] | toxicity (in words) [4]
1 | COc1cccc2c1C(=O)c1c(O)c3c(c(O)c1C2=O)C[C@@](O)(C(=O)CO)C[C@@H]3O[C@H]1C[C@H](N)[C@H](O)[C@H](C)O1 [Doxorubicin, doxorubicin] | 0/10 | 0/10 | 50 | without toxicity | – | – | – | –
2 | COc1cc([C@@H]2c3cc4c(cc3[C@@H](O[C@@H]3O[C@@H]5CO[C@@H](C)O[C@H]5[C@H](O)[C@H]3O)[C@H]3COC(=O)[C@H]23)OCO4)cc(OC)c1O [Etoposide, etoposide] | – | – | – | – | 0/10 | 0/10 | 100 | without toxicity
3 | CC(=O)[C@]1(O)Cc2c(O)c3c(c(O)c2[C@@H](O[C@H]2C[C@H](N4CC4)[C@H](OS(C)(=O)=O)[C@H](C)O2)C1)C(=O)c1ccccc1C3=O [Ia, 4-demethoxy-3'-deamino-3'-aziridinyl-4'-methansulfonyl daunorubicin] | 0/10 | 0/10 | 67 | without toxicity | 0/10 | 0/10 | 67 | without toxicity
